Laboratory results as given in patent US20250320190A1, “Novel Inhibitors of Leucine Carboxyl Methyltransferase-1 (LCMT-1) and Methods of Use Thereof” (Temple University-Of The Commonwealth System of Higher …, priority 2024, published 2025).
Entries after “also recorded” stand apart in the source; their conditions may differ.

How the values were obtained:
UM-SCC-14a cells = assay: Cell cycle analysis (BrdU) with and without irradiation; type: cell-based, human; conditions: combination vs irradiation alone, listed as LCMT-li
Experimental: (§1) Cells were treated with LCMT-li, radiotherapy or both as described for Annexin V assays. After 24 hours, cells were labeled with 50 μM bromodeoxyuridine (BrdU, BioGems, Westlake Village, California, catalog #5911439) for 4 hours. Cells were lifted with 0.25% trypsin, 2.21 mM ethylenediaminetetraacetic acid (EDTA) (Corning catalog #25-053-CI) after 4 hours and fixed with 70% ethanol overnight at −20° C. Cells were pelleted and permeabilized with 1 M HCl with 0.1% Triton X-100 for one minute. Cells were pelleted and cellular DNA was denatured with 2 M HCl. After neutralization with 1 M Tris, pH 8.5, cells were labeled with FITC-anti-BrdU (Biolegend, catalog #364104, 5 μL/100 μL cell suspension) and 7-aminoactinomycin-D (7-AAD, Biolegend, catalog #420404, 1 μL/100 μL cell suspension). Cells were washed with PBS with 10% FBS, and resuspended in PBS with 0.1% Triton X-100. Cells were analyzed with flow cytometry. Cell cycle analyses were performed twice with 12 replicates, 104 cells/replicate.

UM-SCC-69 cells = assay: as above; type: cell-based, human
Experimental: as §1

SCC-25 cells = assay: as above; type: cell-based, human
Experimental: as §1

UM-SCC-49 cells = assay: as above; type: cell-based, human; conditions: combination vs irradiation alone
Experimental: as §1

UM-SCC-12 cells = assay: as above; type: cell-based, human; conditions: LCMT-li/irradiation combination vs irradiation alone
Experimental: as §1

SCC-15 cells = assay: as above; type: cell-based, human; conditions: in the presence of irradiation
Experimental: as §1

THP-1 cells = assay: Cytotoxicity assay (Ghost Dye 710 flow cytometry); type: cell-based; conditions: Homo sapiens, 48 hours
Experimental: (§2) Jurkat and THP-1 cells were seeded in 6-well plates at a density of 2.5×10^5 cells/mL. After 24 hours LCMT-li was added at various concentrations. After 48 hours, cells were pelleted and washed twice with ice-cold phosphate-buffered saline (PBS). Cells were stained with Ghost Dye™ 710 (Cytek®, Bethesda, Maryland) viability dye, 0.1 μL/mL in PBS on ice in the dark for 30 minutes. Cells were pelleted and washed twice with ice-cold PBS with 10% FBS. Cells were pelleted and fixed with 4% formaldehyde in PBS on ice for 15 minutes. Cells were pelleted and resuspended in PBS with 5% bovine serum albumin (BSA). Cells were analyzed with a Becton-Dickinson FACSymphony™ flow cytometer with at least 3 replicates; 3×10^4 cells were analyzed with each replicate for statistical significance.
(§3) Statistical analyses were performed with GraphPad Prism software (version 10.4.1). Effective concentrations that inhibited 50% of cells (EC50, log agonist versus response) were estimated with nonlinear fit curves. Absorbance values for cytotoxity assays and relative densities for Western blot assays were compared using Kruskal-Wallis analyses of variance with Dunn's correction for multiple comparisons. For flow cytometric analyses, two-way analyses of variance with Tukey's correction for multiple comparisons were used.

Jurkat cells = assay: Cytotoxicity assay (Ghost Dye 710 flow cytometry); type: cell-based; conditions: Homo sapiens, 48 hours
Experimental: as §2, §3

[1] = tested on: HEK-293 cells transfected with pCMV6-LCMT1; assay: Cytotoxicity assay in LCMT-1-transfected cells; type: cell-based; conditions: HEK-293 pCMV6-LCMT1 vs HEK-293; 0.78-50 μM; 48 hours
Experimental: A mammalian LCMT-1 plasmid expression vector was obtained from Origene (pCMV6-LCMT1, catalog #RC200018). HEK-293 cells were transfected with the plasmid using PolyJet™ transfection reagent (SignaGen Laboratories, Frederick, Maryland) according to manufacturer's directions. After 5 hours, the medium was changed. The next day, the transfected cells were seeded in 96-well optical bottom tissue culture plates for cytotoxicity assays as previously described. After 24 hours, the medium was changed to medium containing Compound 2 at various concentrations (0.78-50 μM), or fresh medium with the carrier (dimethyl sulfoxide) in the case of the control. After 48 hours, cells were stained with calcein-AM and fluorescence was measured.

HEK-293 cells = assay: Cytotoxicity assay (calcein-AM); type: cell-based; conditions: Homo sapiens, HEK293; HEK-293; 48 hours; read-out: Log [μM] EC50 (converted)
Experimental: (§4) HS-5, HEK-293, MCF7, MDA-MB-231 and Rosi cells were seeded in 96-well optical bottom tissue culture plates (Corning, New York) at a density of 2.5×10^3 cells/well. After 24 hours, the media were changed to media containing LB-100 (Cayman Chemical Company, Ann Arbor, Michigan) or Compound 2 at various concentrations (50-0.31 μM). Control cells were given fresh media. After 48 hours the media were aspirated and plates were washed with warmed Dulbecco's phosphate-buffered saline (DPBS) with calcium and magnesium (Sigma-Aldrich, catalog #D1283). Cells were stained with 3 μM calcein-AM (AAT Bioquest, Pleasanton, California, catalog #22002) in DPBS for 30 minutes in the dark at 37° C. Plates were immediately read with a Biotek fluorescent plate reader (excitation 485 nm, emission 520 nm). The cytotoxicity assays were performed at least three times, each time with six replicates per condition.

HS-5 cells = assay: Cytotoxicity assay (calcein-AM); type: cell-based; conditions: HS-5, 48 hours
Experimental: as §4

MDA-MB-231 cells = assay: Cell cycle analysis (BrdU flow cytometry); type: cell-based, human; conditions: 20 μM, 24 hours
Experimental: (§5) MCF7, MDA-MB-231 and Rosi cells were seeded in 6-well tissue culture plates (Celltreat) at a density of 5×10^5 cells per well. After 24 hours, the DMEM was changed to media containing 20 μM LB-100 or Compound 2. Control cells were given fresh media. After 24 hours, cells were labeled with 50 μM bromodeoxyuridine (BrdU, BioGems, Westlake Village, California, catalog #5911439). Cells were lifted with 0.25% trypsin, 2.21 mM ethylenediaminetetraacetic acid (Corning catalog #25-053-CI) after 4 hours and fixed with 70% ethanol overnight at 4° C. Cells were pelleted and cellular DNA was denatured with HCl. After neutralization with 1 M Tris, pH 8.5, cells were labeled with FITC-anti-BrdU (Biolegend, San Diego, California, catalog #364104, 5 μL/100 μL cell suspension) and 7-aminoactinomycin-D (7-AAD, Biolegend, catalog #420404, 1 μL/100 μL cell suspension). Cells were analyzed with a Becton-Dickinson FACSymphony™ flow cytometer. Cell cycle analyses were performed three times.

Rosi cells = assay: Cell cycle analysis (BrdU flow cytometry); type: cell-based, human; conditions: 20 μM, 24 hours
Experimental: as §5

MCF7 cells = assay: Cell cycle analysis (BrdU flow cytometry); type: cell-based, human; conditions: 20 μM, 24 hours
Experimental: as §5

How did the cell cycle effect (UM-SCC-14a cells) turn out when `COC(=O)c1c(NC(=O)c2ccccc2C)sc(C(=O)Nc2cccc(C)c2)c1C` [Compound 2, methyl 4-methyl-2-[(2-methylbenzoyl)amino]-5-[[(3-methylphenyl)amino]carbonyl]-3-thiophenecarboxylate] was run?
Its cell cycle effect is “increased G0/G1 arrest; also recorded: decreased G2/M phase arrest”.

What about the cell cycle effect (UM-SCC-69 cells; LCMT-li alone vs control cells) of the same molecule?
Its cell cycle effect is “induced G0/G1 arrest”.

And the cell cycle effect (UM-SCC-69 cells; combination vs irradiation alone)?
The cell cycle effect was “decreased G2/M phase arrest”.

What about the cell cycle effect (SCC-25 cells; LCMT-li alone vs control cells) of the same molecule?
Its cell cycle effect is “induced G2/M phase arrest”.

What about the cell cycle effect (SCC-25 cells; LCMT-li/irradiation combination vs irradiation alone) of the same molecule?
Its cell cycle effect is “increased G2/M phase arrest”.

What about the cell cycle effect (UM-SCC-49 cells) of the same molecule?
The cell cycle effect was “decreased G2/M phase arrest”.

What about the cell cycle effect (UM-SCC-12 cells) of the same molecule?
Its cell cycle effect is “increased G2/M phase arrest”.

And the cell cycle effect (SCC-15 cells)?
Its cell cycle effect is “induced G0/G1 as well as G2/M phase arrest”.

And the EC50 (THP-1 cells)?
Its EC50 is 10.4 µM.

And the EC50 (Jurkat cells)?
Its EC50 is 224 µM.

And the “effect of LCMT-1 overexpression on survival in the presence of Compound 2” value [1]?
Its value is “significantly increased survival”.

What about the EC50 (HEK-293 cells) of the same molecule?
The EC50 was 4.68 µM.

What about the EC50 (HS-5 cells; HS5, read-out: Log [μM] EC50 (converted)) of the same molecule?
Its EC50 is 8.71 µM.

And the “concentration at which cytotoxicity was significant” value (HS-5 cells)?
Its value is 20 µM.

What about the cell cycle effect (MDA-MB-231 cells) of the same molecule?
Its cell cycle effect is “did not change cell cycle dynamics”.

And the cell cycle effect (Rosi cells)?
Its cell cycle effect is “induced G0/G1 arrest”.

And the cell cycle effect (MCF7 cells)?
The cell cycle effect was “did not change cell cycle dynamics”.
